System: HR-positive, HER2-negative, advanced breast cancer
Assay: MONALEESA-2: PFS subgroup analysis by 2-gene signature (CDKN2A and E2F3) score
Type: in vivo, human
Settings: for Events: PFS events, median cut-off, both arms plus letrozole; for HR Across ARMCD: PFS, ribociclib arm vs PBO arm, both plus letrozole
Method: The patient population consisted of postmenopausal women with HR-positive, HER2-negative, advanced breast cancer, who had previously received no prior therapy for their advanced breast cancer.
Arm A: Ribociclib (600 mg once daily, days 1-21 of a 28-day cycle)+letrozole (2.5 mg once daily, days 1-28 of a 28-day cycle).
Arm B: Placebo (once daily, days 1-21 of a 28-day cycle)+letrozole (2.5 mg once daily days 1-28 of a 28-day cycle continuously).
PFS was defined as the time from the date of randomization to the date of first documented disease progression or death due to any cause. Discontinuation for non-RECIST progression was not counted as a PFS event. If a patient started other anti-neoplastic therapy or had two or more missing tumour assessments, PFS was censored at the last adequate tumour assessment, regardless of subsequent events.
A Cox Proportional Hazards model was fitted with treatment, liver/lung metastasis which is the study stratification factor, effects of the 16 genes, including CCNA2, CCND1, CCND2, CCND3, CCNE1, CDK2, CDK4, CDK6, CDKN1A, CDKN2A, CDKN2B, CDKN2C, E2F1, E2F3, RB1, and TFDP1, and gene by treatment interactions. […] A set of genes (CDKN2A and E2F3) with significant gene by treatment interactions in the model were identified through backward model selection. Signature scores of all samples were computed as the weighted sum of the gene expression values, where weights were the regression coefficients of respective gene by treatment interactions in the Cox Proportional Hazards model. Patients were classified into high and low subgroups using median signature score as the cut-off. Median PFS and hazard ratio together with 95% confidence intervals were computed for each patient subgroup.
Result: Using backward model selection, a 2-gene signature (CDKN2A and E2F3) was derived. FIG. 1Q and table 4 are subgroup analysis results, high- and low-gene signature expression groups are defined by median signature score as cut-off.

Ribociclib was tested, and the Events (high 2-gene signature (CDKN2A and E2F3) score) was 30, the Events (low 2-gene signature (CDKN2A and E2F3) score) was 28 and the “HR Across ARMCD” value (high 2-gene signature score) was 0.73 (0.46-1.16). For the same substance, the “HR Across ARMCD” value (low 2-gene signature score) was 0.42 (0.26-0.66).

Source: patent US20230160016A1, “METHODS OF SELECTING A TREATMENT FOR CANCER PATIENTS” (NOVARTIS AG, priority 2017, published 2023)
